ChEMBL document CHEMBL3792294, “Efficient synthesis of new 2,3-dihydrooxazole-spirooxindoles hybrids as antimicrobial agents” (2016)
In brackets after ≈: the same amount, converted by molar mass. Activity calls are given as the source filed them. No cut-off for these calls is given here.

How the values were obtained:
Type in all cases: functional
Bacillus subtilis = assay: Antibacterial activity against Bacillus subtilis after 24 hrs by spectrophotometry
Enterobacter = assay: Antibacterial activity against Enterobacter after 24 hrs by spectrophotometry
Klebsiella pneumoniae = assay: Antibacterial activity against Klebsiella pneumoniae after 24 hrs by spectrophotometry
Pyricularia oryzae = assay: Antifungal activity against Pyricularia oryzae after 48 hrs by agar diffusion method
[1] = tested on: Pseudoperonospora cubensis; assay: Antifungal activity against Pseudoperonospora cubensis after 72 hrs by agar diffusion method
Podosphaera fuliginea = assay: Antifungal activity against Sphaerotheca fuliginea after 72 hrs by agar diffusion method
Phytophthora infestans = assay: Antifungal activity against Phytophthora infestans after 72 hrs by agar diffusion method

Molecule	MBC (Bacillus subtilis)	MIC (Bacillus subtilis)	MBC (Enterobacter) [µg/mL]	MIC (Enterobacter) [µg/mL]	MBC (Klebsiella pneumoniae)	MIC (Klebsiella pneumoniae)	MIC (Pyricularia oryzae)	MIC [1]	MIC (Podosphaera fuliginea)	MIC (Phytophthora infestans)
O=C(COc1ccccc1)NN1C(c2ccccc2)=C(c2ccccc2)OC12C(=O)Nc1ccccc12 (stereo not given)	100 µg/mL (≈ 204 µM)	50 µg/mL (≈ 102 µM)	100 (≈ 204 µM)	40 (≈ 81.7 µM)	inactive	inactive	15 µg/mL (≈ 30.6 µM)	12 µg/mL (≈ 24.5 µM)	16 µg/mL (≈ 32.7 µM)	14 µg/mL (≈ 28.6 µM)
Cc1ccccc1OCC(=O)NN1C(c2ccccc2)=C(c2ccccc2)OC12C(=O)Nc1ccccc12 (stereo not given)	inactive	inactive	50 (≈ 99.3 µM)	30 (≈ 59.6 µM)	inactive	inactive	17 µg/mL (≈ 33.8 µM)	8 µg/mL (≈ 15.9 µM)	12 µg/mL (≈ 23.8 µM)	18 µg/mL (≈ 35.7 µM)
O=C(NN1C(c2ccccc2)=C(c2ccccc2)OC12C(=O)Nc1ccccc12)c1ccc(Cl)cc1 (stereo not given)	100 µg/mL (≈ 202 µM)	50 µg/mL (≈ 101 µM)	50 (≈ 101 µM)	30 (≈ 60.7 µM)	100 µg/mL (≈ 202 µM)	50 µg/mL (≈ 101 µM)	14 µg/mL (≈ 28.3 µM)	12 µg/mL (≈ 24.3 µM)	12 µg/mL (≈ 24.3 µM)	14 µg/mL (≈ 28.3 µM)
COc1ccc(C(=O)NN2C(c3ccccc3)=C(c3ccccc3)OC23C(=O)Nc2ccccc23)cc1 (stereo not given)	200 µg/mL (≈ 409 µM)	100 µg/mL (≈ 204 µM)	100 (≈ 204 µM)	50 (≈ 102 µM)	inactive	inactive	12 µg/mL (≈ 24.5 µM)	14 µg/mL (≈ 28.6 µM)	8 µg/mL (≈ 16.3 µM)	14 µg/mL (≈ 28.6 µM)
Cc1cccc(OCC(=O)NN2C(c3ccccc3)=C(c3ccccc3)OC23C(=O)Nc2ccccc23)c1 (stereo not given)	inactive	inactive	100 (≈ 199 µM)	40 (≈ 79.4 µM)	inactive	inactive	20 µg/mL (≈ 39.7 µM)	inactive	inactive	12 µg/mL (≈ 23.8 µM)
O=C(NN1C(c2ccccc2)=C(c2ccccc2)OC12C(=O)Nc1ccccc12)c1ccccc1O (stereo not given)	100 µg/mL (≈ 210 µM)	70 µg/mL (≈ 147 µM)	50 (≈ 105 µM)	40 (≈ 84.1 µM)	inactive	inactive	16 µg/mL (≈ 33.6 µM)	12 µg/mL (≈ 25.2 µM)	12 µg/mL (≈ 25.2 µM)	14 µg/mL (≈ 29.4 µM)
Cc1ccc(OCC(=O)NN2C(c3ccccc3)=C(c3ccccc3)OC23C(=O)Nc2ccccc23)cc1 (stereo not given)	inactive	inactive	100 (≈ 199 µM)	50 (≈ 99.3 µM)	inactive	inactive	8 µg/mL (≈ 15.9 µM)	12 µg/mL (≈ 23.8 µM)	12 µg/mL (≈ 23.8 µM)	14 µg/mL (≈ 27.8 µM)
O=C(NN1C(c2ccccc2)=C(c2ccccc2)OC12C(=O)Nc1ccccc12)c1ccc([N+](=O)[O-])cc1 (stereo not given)	50 µg/mL (≈ 99.1 µM)	30 µg/mL (≈ 59.5 µM)	50 (≈ 99.1 µM)	30 (≈ 59.5 µM)	inactive	inactive	16 µg/mL (≈ 31.7 µM)	18 µg/mL (≈ 35.7 µM)	12 µg/mL (≈ 23.8 µM)	12 µg/mL (≈ 23.8 µM)
NYSTATIN							20 µg/mL	18 µg/mL	18 µg/mL	18 µg/mL
O=C(COc1ccc(Cl)cc1Cl)NN1C(c2ccccc2)=C(c2ccccc2)OC12C(=O)Nc1ccccc12 (stereo not given)	50 µg/mL (≈ 89.5 µM)	25 µg/mL (≈ 44.8 µM)	100 (≈ 179 µM)	40 (≈ 71.6 µM)	50 µg/mL (≈ 89.5 µM)	25 µg/mL (≈ 44.8 µM)	inactive	inactive	14 µg/mL (≈ 25.1 µM)	inactive
O=C(O)c1cn(C2CC2)c2cc(N3CCNCC3)c(F)cc2c1=O [CIPROFLOXACIN]	12.5 µg/mL (≈ 37.7 µM)	6.25 µg/mL (≈ 18.9 µM)	25 (≈ 75.4 µM)	10.2 (≈ 30.9 µM)	25 µg/mL (≈ 75.4 µM)	6.25 µg/mL (≈ 18.9 µM)				
